Results reported in US8580839B2, “Photosensitizer formulations and their use” (Biolitec Pharma Marketing Ltd, priority 2005, dated 2013).

Assay: Fluorescence detection of m-THPC tissue accumulation in patients after intravenous injection
Type: in vivo
Settings: for fluorescence found/# patients tested: 0.05 mg/kg
Protocol: Comparison of tissue accumulation of m-THPC in patients after administration of the standard m-THPC formulation (“m-THPC”) and a low concentration formulation with low dosage of m-THPC (“m-THPC-dl”).
In this example, the two formulations were studied and compared to show m-THPC uptake in patient tissue after administration. The standard formulation (“m-THPC”) contained the standard concentration of m-THPC for photodynamic therapy, which is 4 mg/ml. The second formulation (“m-THPC-dl”) is a low concentration formulation containing 0.8 mg/ml of m-THPC. Each formulation was prepared with a mixture of pure propylene glycol and pure ethanol (3:2, v/v) as the excipient. Each patient received a reduced dosage of 0.05 mg of m-THPC per kg of body weight.
After administration of the two different formulations, the fluorescence accumulation in patients was monitored and the large difference in the pharmacokinetics between the m-THPC and m-THPC-dl formulations was found.
Comparison of tissue accumulation of m-THPC in patients after administration of the standard m-THPC formulation (“m-THPC”) and a low concentration formulation when m-THPC is diluted with aqueous lipid containing solubilizing preparation Lipofundin®.
In this example, the two formulations were studied and compared to show m-THPC uptake in patient tissue after administration with […]. The standard formulation (“m-THPC”) contained the standard concentration of m-THPC for photodynamic therapy is 4 mg/ml. The second formulation (“m-THPC-Lipo”) is a low concentration formulation containing 0.08 mg/ml of m-THPC (dilution for 50 times, from standard level). It was prepared by the dilution of standard m-THPC solution with the concentration of 4 mg/ml by aqueous lipid containing solubilizing preparation. Lipofundin® MCT (10%, B. Braun Melsungen AG, Melsungen, Germany). Each patient received intravenously the low dosage of 0.05 mg of m-THPC per kg of body weight.
After administration of the two different formulations, the fluorescence accumulation in patients was monitored and a no difference in the pharmacokinetics between the m-THPC and m-THPC-Lipo formulations was found.

patients with measurable fluorescence in the tumors (1 hour after drug injection): not detected in any patients | patients with strong fluorescence in the tumors (3 hours after injection): about 30% | fluorescence found/# patients tested (Intact skin, 15 min after injection): 0/11 | fluorescence found/# patients tested (Intact skin, 1 hour after injection): 0/11 | fluorescence found/# patients tested (Intact skin, 3 hours after injection): 2/11 | fluorescence found/# patients tested (Intact skin, 1 day after injection): 8/11 | fluorescence found/# patients tested (Intact skin, 2 days after injection): 9/11 | fluorescence found/# patients tested (Perifocal skin, 15 min after injection): 0/11 | fluorescence found/# patients tested (Perifocal skin, 1 hour after injection): 0/11 | fluorescence found/# patients tested (Perifocal skin, 3 hours after injection): 2/11 | fluorescence found/# patients tested (Perifocal skin, 1 day after injection): 10/11 | fluorescence found/# patients tested (Perifocal skin, 2 days after injection): All | fluorescence found/# patients tested (Tumor, 15 min after injection): 0/11 | fluorescence found/# patients tested (Tumor, 1 hour after injection): 0/11 | fluorescence found/# patients tested (Tumor, 3 hours after injection): 4/11 | fluorescence found/# patients tested (Tumor, 1 day after injection): All | fluorescence found/# patients tested (Tumor, 2 days after injection): All
SMILES: Oc1cccc(-c2c3nc(c(-c4cccc(O)c4)c4ccc([nH]4)c(-c4cccc(O)c4)c4nc(c(-c5cccc(O)c5)c5ccc2[nH]5)CC4)C=C3)c1 [m-THPC, Meta-tetra(hydroxyphenyl)chlorin]
fluorescence in perifocal and intact skin (2 days post-injection): there were patients where fluorescence in perifocal and intact skin was not observed
